Assay results reported in ChEMBL document CHEMBL4270597, “Donepezil-butylated hydroxytoluene (BHT) hybrids as Anti-Alzheimer's disease agents with cholinergic, antioxidant, and neuroprotective properties” (Eur J Med Chem, 2018).
Activity calls are given as the source filed them. The rule behind the calls is not given here.

What was measured:
Acetylcholinesterase [1] = biological target: Acetylcholinesterase (Electrophorus electricus, UniProt O42275); assay: Inhibition of electric eel AChE using acetylthiocholine chloride as substrate incubated for 5 mins followed by substrate addition measured after 180 secs by Ellman's method
Chain of Acetylcholinesterase (Electrophorus electricus, UniProt O42275) (O42275 whole entry): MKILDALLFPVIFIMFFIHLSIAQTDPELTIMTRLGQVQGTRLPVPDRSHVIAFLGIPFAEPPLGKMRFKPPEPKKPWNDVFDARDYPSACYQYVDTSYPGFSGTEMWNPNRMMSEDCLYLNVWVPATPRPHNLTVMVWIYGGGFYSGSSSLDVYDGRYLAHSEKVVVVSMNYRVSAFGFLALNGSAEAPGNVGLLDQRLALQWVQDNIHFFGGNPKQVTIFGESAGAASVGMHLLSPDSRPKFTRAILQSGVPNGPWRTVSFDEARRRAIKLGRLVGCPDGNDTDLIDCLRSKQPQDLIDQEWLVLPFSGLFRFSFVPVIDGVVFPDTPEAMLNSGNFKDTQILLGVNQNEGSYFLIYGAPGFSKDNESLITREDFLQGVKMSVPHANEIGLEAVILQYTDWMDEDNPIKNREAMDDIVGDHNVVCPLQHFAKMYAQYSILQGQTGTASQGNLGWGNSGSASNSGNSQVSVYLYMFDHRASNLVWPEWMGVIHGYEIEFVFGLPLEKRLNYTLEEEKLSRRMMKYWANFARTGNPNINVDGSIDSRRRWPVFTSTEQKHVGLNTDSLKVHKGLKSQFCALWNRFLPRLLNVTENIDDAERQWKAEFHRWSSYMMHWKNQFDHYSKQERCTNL

[2] = biological target: Cholinesterase (Equus caballus) (UniProt P81908); assay: Inhibition of equine serum BuChE at 100 uM using butyrylthiocholine iodide as substrate incubated for 5 mins followed by substrate addition measured after 180 secs by Ellman's method relative to control
Chain of Cholinesterase (Equus caballus) (P81908 whole entry): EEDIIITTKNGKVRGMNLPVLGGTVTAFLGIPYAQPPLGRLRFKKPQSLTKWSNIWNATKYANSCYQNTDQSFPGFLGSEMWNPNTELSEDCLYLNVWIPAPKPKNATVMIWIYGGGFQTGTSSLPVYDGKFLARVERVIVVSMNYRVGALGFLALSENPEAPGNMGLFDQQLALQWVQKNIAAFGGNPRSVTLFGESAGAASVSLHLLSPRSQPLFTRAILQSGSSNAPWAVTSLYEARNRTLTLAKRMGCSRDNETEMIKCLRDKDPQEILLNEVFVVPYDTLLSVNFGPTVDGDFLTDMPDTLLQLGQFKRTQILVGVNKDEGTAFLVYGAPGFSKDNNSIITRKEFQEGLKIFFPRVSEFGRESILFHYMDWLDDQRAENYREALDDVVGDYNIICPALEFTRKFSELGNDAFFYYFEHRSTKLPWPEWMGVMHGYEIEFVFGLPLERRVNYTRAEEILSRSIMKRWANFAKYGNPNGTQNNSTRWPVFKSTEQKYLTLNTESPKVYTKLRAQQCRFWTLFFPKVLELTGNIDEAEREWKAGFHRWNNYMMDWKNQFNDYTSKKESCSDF

Acetylcholinesterase [3] = biological target: T1, Acetylcholinesterase (Homo sapiens, UniProt P22303); assay: Inhibition of human erythrocyte AChE using acetylthiocholine chloride as substrate incubated for 5 mins followed by substrate addition measured after 180 secs by Ellman's method
T1 sequence (P22303 whole entry): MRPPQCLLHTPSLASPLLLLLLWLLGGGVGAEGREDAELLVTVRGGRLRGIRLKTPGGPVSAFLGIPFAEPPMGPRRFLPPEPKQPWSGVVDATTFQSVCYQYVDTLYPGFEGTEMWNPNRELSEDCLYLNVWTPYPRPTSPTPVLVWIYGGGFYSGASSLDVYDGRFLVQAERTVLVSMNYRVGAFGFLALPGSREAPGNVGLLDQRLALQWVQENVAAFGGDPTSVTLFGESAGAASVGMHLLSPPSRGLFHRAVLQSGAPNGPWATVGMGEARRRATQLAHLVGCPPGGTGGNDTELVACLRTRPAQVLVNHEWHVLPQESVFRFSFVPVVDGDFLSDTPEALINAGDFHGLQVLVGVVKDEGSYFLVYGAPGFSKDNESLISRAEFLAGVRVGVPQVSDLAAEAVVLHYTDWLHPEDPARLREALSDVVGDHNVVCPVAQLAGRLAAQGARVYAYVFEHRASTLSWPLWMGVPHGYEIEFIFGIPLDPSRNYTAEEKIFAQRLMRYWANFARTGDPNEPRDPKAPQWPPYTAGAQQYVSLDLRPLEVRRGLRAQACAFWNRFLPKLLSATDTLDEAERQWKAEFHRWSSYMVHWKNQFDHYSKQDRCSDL

Cholinesterase [4] = biological target: T2, Cholinesterase (Homo sapiens, UniProt P06276); assay: Inhibition of human serum BuChE using butyrylthiocholine iodide as substrate incubated for 5 mins followed by substrate addition measured after 180 secs by Ellman's method
T2 sequence (P06276 whole entry): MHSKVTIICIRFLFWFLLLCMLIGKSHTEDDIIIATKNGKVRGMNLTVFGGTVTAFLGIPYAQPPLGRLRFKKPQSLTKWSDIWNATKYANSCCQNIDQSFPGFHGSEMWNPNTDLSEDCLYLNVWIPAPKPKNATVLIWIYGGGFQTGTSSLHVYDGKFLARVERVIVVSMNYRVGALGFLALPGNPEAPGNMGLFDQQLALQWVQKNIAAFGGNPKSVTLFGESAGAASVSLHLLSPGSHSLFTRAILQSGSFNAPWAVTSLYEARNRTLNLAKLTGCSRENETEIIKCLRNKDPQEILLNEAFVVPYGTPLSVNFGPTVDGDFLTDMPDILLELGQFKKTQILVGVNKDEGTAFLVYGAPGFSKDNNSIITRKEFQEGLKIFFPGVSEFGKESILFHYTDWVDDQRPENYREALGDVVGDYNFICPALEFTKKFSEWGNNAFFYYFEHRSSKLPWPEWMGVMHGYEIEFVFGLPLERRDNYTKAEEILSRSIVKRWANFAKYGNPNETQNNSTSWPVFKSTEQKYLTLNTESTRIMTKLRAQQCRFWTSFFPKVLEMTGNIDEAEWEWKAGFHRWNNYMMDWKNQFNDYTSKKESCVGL

[5] = biological target: T3, Amine oxidase [flavin-containing] A (Homo sapiens, UniProt P21397); assay: Inhibition of human MAO-A using p-tyramine as substrate incubated for 15 mins followed by substrate addition measured for 20 mins by fluorescence assay
T3 sequence (P21397 whole entry): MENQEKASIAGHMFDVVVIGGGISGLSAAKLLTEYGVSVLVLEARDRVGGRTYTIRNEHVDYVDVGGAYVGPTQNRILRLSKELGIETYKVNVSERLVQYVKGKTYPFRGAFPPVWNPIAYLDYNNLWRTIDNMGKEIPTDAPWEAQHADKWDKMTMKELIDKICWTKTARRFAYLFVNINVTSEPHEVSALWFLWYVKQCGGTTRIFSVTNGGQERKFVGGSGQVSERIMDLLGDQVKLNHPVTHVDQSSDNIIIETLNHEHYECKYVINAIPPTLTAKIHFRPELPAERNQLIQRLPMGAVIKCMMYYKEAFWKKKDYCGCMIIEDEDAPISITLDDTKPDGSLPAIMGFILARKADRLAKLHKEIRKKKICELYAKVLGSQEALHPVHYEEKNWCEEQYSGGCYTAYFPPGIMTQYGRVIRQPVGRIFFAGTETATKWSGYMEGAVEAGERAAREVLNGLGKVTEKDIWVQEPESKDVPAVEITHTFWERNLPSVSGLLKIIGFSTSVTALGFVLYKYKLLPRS

[6] = biological target: T4, Amine oxidase [flavin-containing] B (Homo sapiens, UniProt P27338); assay: Inhibition of human MAO-B using p-tyramine as substrate incubated for 15 mins followed by substrate addition measured for 20 mins by fluorescence assay
T4 sequence (P27338 whole entry): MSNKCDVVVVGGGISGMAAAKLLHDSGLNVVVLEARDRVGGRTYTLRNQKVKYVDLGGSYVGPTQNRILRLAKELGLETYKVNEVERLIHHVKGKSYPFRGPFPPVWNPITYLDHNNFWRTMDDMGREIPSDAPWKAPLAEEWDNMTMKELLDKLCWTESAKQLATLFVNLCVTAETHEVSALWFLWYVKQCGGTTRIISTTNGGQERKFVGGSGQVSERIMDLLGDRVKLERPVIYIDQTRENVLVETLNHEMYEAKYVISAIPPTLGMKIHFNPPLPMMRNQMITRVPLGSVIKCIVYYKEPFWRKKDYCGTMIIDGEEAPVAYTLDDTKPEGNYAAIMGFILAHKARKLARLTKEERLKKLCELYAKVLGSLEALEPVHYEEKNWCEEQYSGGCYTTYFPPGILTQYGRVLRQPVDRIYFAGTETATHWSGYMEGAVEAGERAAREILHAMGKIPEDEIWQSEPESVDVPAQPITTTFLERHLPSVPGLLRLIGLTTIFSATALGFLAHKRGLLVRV

[7] = Antioxidant activity assessed as DPPH radical scavenging activity measured after 30 mins incubation in dark by UV-Visible spectrophotometric analysis; type: functional
[8] = Antioxidant activity assessed as ABTS radical cation scavenging activity by measuring trolox equivalent antioxidant capacity measured at 6 mins; type: functional
[9] = Antioxidant activity assessed as trolox equivalent of AAPH-induced radical scavenging activity preincubated for 15 mins followed by AAPH addition measured every minute for 120 mins by ORAC-FL based fluorescein assay; type: functional
[10] = biological target: Acetylcholinesterase (Electrophorus electricus) (UniProt O42275); assay: Inhibition of electric eel AChE at 100 uM using acetylthiocholine chloride as substrate incubated for 5 mins followed by substrate addition measured after 180 secs by Ellman's method relative to control
Chain of Acetylcholinesterase (Electrophorus electricus) (O42275 24-633 limits assumed): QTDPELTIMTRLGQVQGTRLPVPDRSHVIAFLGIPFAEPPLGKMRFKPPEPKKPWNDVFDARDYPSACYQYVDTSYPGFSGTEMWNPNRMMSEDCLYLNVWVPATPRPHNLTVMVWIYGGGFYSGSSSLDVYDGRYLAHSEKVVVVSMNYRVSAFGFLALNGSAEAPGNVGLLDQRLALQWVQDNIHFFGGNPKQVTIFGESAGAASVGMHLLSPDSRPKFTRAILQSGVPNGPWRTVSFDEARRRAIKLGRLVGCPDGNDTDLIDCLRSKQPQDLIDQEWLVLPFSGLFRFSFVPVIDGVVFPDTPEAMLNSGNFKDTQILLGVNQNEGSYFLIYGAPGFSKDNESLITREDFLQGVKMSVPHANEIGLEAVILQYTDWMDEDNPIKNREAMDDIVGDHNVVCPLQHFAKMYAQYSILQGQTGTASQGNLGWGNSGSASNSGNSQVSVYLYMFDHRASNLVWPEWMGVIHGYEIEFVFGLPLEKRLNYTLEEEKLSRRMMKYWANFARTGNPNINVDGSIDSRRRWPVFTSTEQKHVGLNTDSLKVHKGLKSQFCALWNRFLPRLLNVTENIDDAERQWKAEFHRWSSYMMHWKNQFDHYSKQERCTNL

Acetylcholinesterase [11] = biological target: T1, Acetylcholinesterase; assay: Inhibition of human erythrocyte AChE at 100 uM using acetylthiocholine chloride as substrate incubated for 5 mins followed by substrate addition measured after 180 secs by Ellman's method relative to control
Cholinesterase [12] = biological target: T2, Cholinesterase; assay: Inhibition of human serum BuChE at 100 uM using butyrylthiocholine iodide as substrate incubated for 5 mins followed by substrate addition measured after 180 secs by Ellman's method relative to control
BV-2 = assay: Antineuroinflammatory activity in mouse BV2 cells assessed as inhibition of LPS-induced NO production at 10 to 30 uM after 24 hrs by Griess assay; type: functional, cell-based
Homo sapiens = species on record: Homo sapiens; assay: Selectivity index, ratio of IC50 for human serum BuChE to IC50 for human erythrocyte AChE
[13] = Antioxidant activity assessed as DPPH radical scavenging activity at 100 uM measured after 30 mins incubation in dark by UV-Visible spectrophotometric analysis relative to control; type: functional

Compound	IC50 (Acetylcholinesterase [1]) [µM]	inhibition [2] [%]	IC50 (Acetylcholinesterase [3]) [µM]	IC50 (Cholinesterase [4])	IC50 [5] [µM]	IC50 [6] [µM]	IC50 [7] [µM]	Activity (mmolequiv/mmol) [8]	Activity (mmolequiv/mmol) [9]	inhibition [10] [%]	inhibition (Acetylcholinesterase [11]) [%]	inhibition (Cholinesterase [12]) [%]	inhibition (BV-2)	Ratio IC50 (Homo sapiens)	Activity [13] [%]
CC(C)(C)c1cc(/C=C/C(=O)NCCC2CCN(Cc3ccc(Br)cc3)CC2)cc(C(C)(C)C)c1O	1.32	38.9	3.81	Not Active	73.2	13.2	85.6	0.77	1.59	–	–	–	–	–	–
COc1ccc(CN2CCC(CCNC(=O)/C=C/c3cc(C(C)(C)C)c(O)c(C(C)(C)C)c3)CC2)cc1	0.85	43.6	2.12	Not Active	72.5	6.7	61.2	0.82	1.66	–	–	–	–	–	–
CC(C)(C)c1cc(/C=C/C(=O)NC2CCN(Cc3ccccc3)CC2)cc(C(C)(C)C)c1O	–	31.5	–	–	42.5	33.5	71.9	0.94	1.42	34.3	27.7	9.41	–	–	–
Cc1ccc(CN2CCC(CCNC(=O)/C=C/c3cc(C(C)(C)C)c(O)c(C(C)(C)C)c3)CC2)cc1	0.72	41.4	2.01	Not Active	70.1	8.9	60.4	0.89	1.57	–	–	–	–	–	–
CC(C)(C)c1cc(/C=C/C(=O)NCCC2CCN(Cc3ccc(F)cc3F)CC2)cc(C(C)(C)C)c1O	0.56	31.2	1.78	Not Active	70.6	12.5	62.4	0.91	1.54	–	–	–	–	–	–
Oc1ccc(/C=C/c2cc(O)cc(O)c2)cc1 [RESVERATROL]	–	–	–	–	–	–	75.1	0.68	1.84	–	–	–	Active	–	–
CC(C)(C)c1cc(CCC(=O)NC2CCN(Cc3ccccc3)CC2)cc(C(C)(C)C)c1O	–	28.7	–	–	90.2	70.4	80.3	0.68	1.62	34.4	30.2	12.3	–	–	–
CC(C)(C)c1cc(CCC(=O)NCCC2CCN(Cc3ccccc3)CC2)cc(C(C)(C)C)c1O	2.31	42.4	3.42	–	94.1	46.9	54.5	0.69	1.33	–	–	36.5	–	> 33	–
Cc1ccccc1CN1CCC(CCNC(=O)/C=C/c2cc(C(C)(C)C)c(O)c(C(C)(C)C)c2)CC1	0.87	55.9	2.51	–	69.3	7.2	65.3	0.75	1.61	–	–	30.2	–	> 40	–
CC(C)(C)c1cc(/C=C/C(=O)NCCC2CCN(Cc3cccc(Cl)c3)CC2)cc(C(C)(C)C)c1O	0.74	41.5	2.54	Not Active	65.1	8.7	83.1	0.74	1.55	–	–	–	–	–	–
CC(C)(C)c1cc(/C=C/C(=O)NCC2CCN(Cc3ccccc3)CC2)cc(C(C)(C)C)c1O	–	16.6	–	–	48.4	11.7	75.6	0.86	1.31	29.1	28.1	21.7	–	–	–
CC(C)(C)c1cc(/C=C/C(=O)NCCC2CCN(Cc3ccccc3Cl)CC2)cc(C(C)(C)C)c1O	0.59	35.5	2.44	Not Active	72.1	9.8	80.2	0.64	1.6	–	–	–	–	–	–
CC(C)(C)c1cc(C(=O)NCCC2CCN(Cc3ccccc3)CC2)cc(C(C)(C)C)c1O	–	49.7	–	–	109	89.2	–	0.84	1.6	41.8	34.1	15.8	–	–	49.1
CC(C)(C)c1cc(/C=C/C(=O)NCCC2CCN(Cc3ccc(F)c(F)c3)CC2)cc(C(C)(C)C)c1O	0.42	39.9	1.62	Not Active	64.5	9.3	65.7	0.79	1.57	–	–	–	–	–	–
CC(C)(C)c1cc(/C=C/C(=O)NCCC2CCN(Cc3cccc([N+](=O)[O-])c3)CC2)cc(C(C)(C)C)c1O	1.21	42.6	3.46	Not Active	70.9	12.5	78.1	0.85	1.6	–	–	–	–	–	–
CC(C)(C)c1cc(/C=C/C(=O)NCCC2CCN(Cc3ccc(F)cc3)CC2)cc(C(C)(C)C)c1O	0.32	40.2	0.98	Not Active	59.6	11.1	57.5	0.88	1.51	–	–	–	–	–	–
Cc1cc(C(C)(C)C)c(O)c(C(C)(C)C)c1 [BUTYLATED HYDROXYTOLUENE]	–	–	–	–	–	–	88.6	0.59	1.57	–	–	–	Active	–	–
CC(C)(C)c1cc(/C=C/C(=O)NCCC2CCN(Cc3cccc(F)c3)CC2)cc(C(C)(C)C)c1O	0.68	37.9	1.33	Not Active	58.4	6.5	55.2	0.78	1.59	–	–	–	–	–	–
CC(C)(C)c1cc(C(=O)CNC2CCN(Cc3ccccc3)CC2)cc(C(C)(C)C)c1O	–	27.2	–	–	104	83.4	–	0.36	0.35	45	43.4	26.1	–	–	16.3
CC(C)(C)c1cc(/C=C/C(=O)NCCC2CCN(Cc3ccc(C#N)cc3)CC2)cc(C(C)(C)C)c1O	0.77	48.1	2.78	–	78.2	13.9	79.5	0.84	1.62	–	–	41.2	–	> 36	–
